# Patent EP0059258A1, “Pharmaceutical preparations comprising polyprenyl compounds, especially as anti-cancer agents, and pharmaceutical compositions for the prevention and treatment of cancer and skin diseases” (Eisai Co., Ltd., priority 1980, dated 1982)
# System: papillomata
# Experiment: Anti-cancer activity: mouse skin papilloma test (7,12-dimethylbenzanthracene / croton oil induced)
# Assay type: in vivo, mouse (ICR strain, female)
# Conditions: administered orally as 20 mg/ml solution in groundnut oil, 10 times for 14 days; total diameter on the 14th day vs. prior to administration
# Procedure: A mouse (ICR strain, female, 50 days age) was shaved at the back of neck (to the extent of 5 cm^2). 7,12-Dimethylbenzo-[2]-anthracene was dissolved in acetone to give-75 mg /100 ml. solution. The so prepared solution was applied to the mouse on the 60th day of age and further on the 75th day of aqe in the amount of 0.2 ml per mouse.
# Croton oil was dissolved in acetone to give 250 mg/ 100 ml solution, and the so prepared solution was applied to the mouse in the amount of 0.2 ml per mouse,-twice a week until the treatment was started. When 3 - 7 papillomata (diamether of 3 - 8 mm for each, and total diameter of 30 - 60 mm ) were produced for a mouse, the treatment was started.
# The compound to be tested (test compound) was dissolved in groundnut oil to give 20' mg /ml solution, and administered orally to the mouse. The solution was administered 10 times for 14 days (once a day), and the diameters of the papillomata were measured on the 14th day to determine the total diameter for each mouse. Ratio of increase or decrease of the papillomata was calculated from the total diameter on the 14th day and the total diameter measured prior to the starting of administration of the test compound. This value was adopted' for evaluating the anti-cancer activity.
row,SMILES,Ratio of increase or decrease of papillomas(%)
1,"CC(C)=CCCC(C)=CCCC(C)=CCCC(C)=CC=CC(C)=CC(=O)O [(1), 3,7,11,15,19-pentamethyl-2,4,6,10,14,18-eicosahexa-enoic acid]",−24.0
2,"CC(C)=CCCC(C)CCCC(C)=CC=CC(C)=CC(=O)O (stereo not drawn) [(2), 3,7,11,15-tetramethyl-2,4,6,14-hexadecatetraenoic acid]",−19.5
3,"CCOC(=O)C=C(C)C=CC=C(C)CCCC(C)CCC=C(C)C (stereo not drawn) [(3), ethyl 3,7,11,15-tetramethyl-2,4,6,14-hexadecatetra-enoate]",−10.2
4,"CC(C)=CCCC(C)=CC=CC(C)=CC=CC(C)=CC(=O)O [(4), 3,7,11,15-tetramethyl-2,4,6,8,10,14-hexadecahexaeno-ic acid]",−26.3
5,"CC(C)=CCCC(C)=CCCC(C)=CC=CC(C)=CC(N)=O [(5), 3,7,11,15-tetramethyl-2,4,6,10,14-hexadecapentaeno-amide]",−25.5
6,"CCOC(=O)C=C(C)C=CC=C(C)CCC=C(C)CCC=C(C)C [(6), ethyl 3,7,11,15-tetramethyl-2,4,6,10,14-hexadeca-pentaenoate]",−17.5
7,"CC(=O)C=CC=C(C)CCC=C(C)CCC=C(C)CCC=C(C)C [(7), 6,10,14,18-tetramethyl-3,5,9,13,17-nonadecapentaen-2-on]",−12.7
8,"CC(C)=CCCC(C)=CCCC(C)=CCCC(C)=CC(=O)O [(8), 3,7,11,15-tetramethyl-2,6,10,14-hexadecatetraenoic acid]",−6.5
9,"CC(=O)CCC=C(C)CCC=C(C)CCC=C(C)CCC=C(C)C [(9), 6,10,14,18-tetramethyl-5,9,13,17-nonadecatetraen-2-on]",−8.2
